Assay results from PubChem BioAssay AID179 (DTP/NCI, 2004).
Several values for one entry are separate records, joined by “and”; a condition that tells them apart may be missing. Equal entries are not always repeated. Activity calls are given as the source filed them.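 Rule for the calls: active = compounds giving half or more protection of infected cells from virus-caused growth loss, again on retest; inactive = the rest.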 Where a SMILES comes first, the peptide text is derived from it. The star is where a group is joined. Cbz = O=C(OCc1ccccc1)*

Test system: CEM cells HIV-1 protection, formazan growth assay
Assay: NCI AIDS Antiviral Assay
Details: for IC50: measured here: growth of uninfected CEM cells
Method in brief: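 Soluble formazan readout of cell growth; CEM cells ± HIV-1; 5 drug concs. ≥50% protection → retest; ≥50% again = moderately active; reproducible 100% = confirmed active.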

SMILES | EC50 | IC50 | outcome
CC(=O)/C(=C/c1ccc([N+](=O)[O-])cc1)C(=O)c1ccccc1 | > 87.1 µM | 16.6 µM | –
NC(=O)c1nnc2cc(F)c(F)cc2c1N | > 200 µM | > 200 µM | –
O=C(O)CN(c1ccccc1)S(=O)(=O)c1ccccc1[N+](=O)[O-] | – | – | inactive
Oc1ccc[n+](Cc2ccccc2)c1 | > 200 µM | > 200 µM | –
CC(C)NC(=O)CCN(C(=O)O)S(=O)(=O)c1ccc(NC(=O)c2ccccc2)cc1 | > 575 µM | > 575 µM | –
CNc1ccc(F)cc1SSc1cc(F)ccc1NC | > 200 µM | 4.79 µM | –
O=C1CSC2=NCC3(NN12)c1ccccc1-c1ccccc13 | > 200 µM | > 100 µM | –
COC(=O)c1cc2ccc(OC(C)=O)c(OC(C)=O)c2cn1 | > 166 µM | 0.851 µM | –
CCCC1OP(=O)(N2CC(C)N(P3(=O)OCC(CC)C(CCC)O3)CC2C)OCC1CC (stereo not given) | > 200 µM | > 200 µM | –
CCOP(=O)(CC(C)P(=O)(OCC)OCC)OCC.C[CH2][Sn]([Cl])([Cl])[CH2]C (stereo not given) | > 447 µM | 1.7 µM | –
Cc1c2cccc-2c(OCCO)cc2c1[nH]c1ccccc12 | > 200 µM | 2.88 µM | –
C=C1[C@H]2C(=O)[C@H]3[C@@H]4N(C)C5CC3([C@@H]1OC(C)=O)[C@@H](C2OC(C)=O)C41[C@H](OC(C)=O)C(OC(=O)c2ccccc2)C[C@@](C)(C=O)[C@@H]51 (stereo not given in full) | – | – | inactive
CN1C(C)(C)CC(=O)C(Br)C1(C)C (stereo not given) | > 200 µM | 117 µM | –
CCc1cccc(C(C)CC)c1N=C(NC(=O)c1ccccc1C(=O)NC(=Nc1c(CC)cccc1C(C)CC)SC)SC (stereo not given) | > 56.2 µM | > 56.2 µM | –
COc1cc(/C=C2\C(=O)N(C(=O)Cc3ccccc3)N=C2C)cc(OC)c1OC | > 25.1 µM | > 25.1 µM | –
CCCc1cc(=O)oc2c3c(c4c(c12)OC(C)(C)C=C4)O[C@@H](C)[C@H](C)[C@H]3O | > 51.3 µM | 17 µM | –
COc1ccc(C2SCc3nc4ccccc4n32)cc1 (stereo not given) | – | – | inactive
CC(C)[C@H](NC(=O)OCc1ccccc1)C(=O)N[C@H](/C=C/C(=O)OC(C)(C)C)CO | > 200 µM | 97.7 µM | –
O=c1[nH]nc(-c2ccccc2)c(-c2ccccc2)c1-n1nc(-c2ccccc2)c2ccccc2c1=O | > 10.7 µM | > 10.7 µM | –
COc1ccc(-c2nnc(-c3c(C)n(C)n(-c4ccccc4)c3=O)o2)cc1 | > 200 µM | > 200 µM | –
O=C(Nc1ccc([N+](=O)[O-])cc1)N(c1cc(Cl)ccn1)C1CCCCC1 | > 200 µM | 11 µM | –
CC(=O)NNC(=O)c1ccccc1O | > 200 µM | 29.5 µM | –
CC(=O)c1cccc(NC2C(N)C(NC(=O)N(C)C)(C(C)O)C(C)(O)C2(O)COC(=O)c2c(C)cccc2O)c1 (stereo not given) | > 64.6 µM | 0.0427 µM | –
COc1ccc(/C=C/C(=O)c2cccc(C(=O)/C=C/c3ccc(OC)c(OC)c3)n2)cc1OC | > 200 µM | 110 µM | –
Cn1c(=O)c2nc(N3CCCCC3)cnc2n(C)c1=O | > 200 µM | > 200 µM | –
N#CC(NNC(=O)c1ccccc1O)c1cccc(O)c1 (stereo not given) | > 6.31 µM | 0.562 µM | –
CCCc1cc(=O)oc2c3c(c4c(c12)OC(C)(C)C=C4)O[C@H](C)C(C)[C@@H]3O (stereo not given in full) | 0.331 µM | 25.1 µM | –

SMILES | EC50 | IC50 | outcome
CN(C)C(=N)CSS(=O)(=O)O | 120 µM | 182 µM | –
O=C(N/C(=C/c1ccc(Cl)cc1)c1nc2ccccc2c(=O)n1Nc1ccc([N+](=O)[O-])cc1[N+](=O)[O-])c1ccccc1 | > 200 µM | 178 µM | –
CC(C)(C)C1(O)Cc2ccccc2C(=O)O1 (stereo not given) | > 309 µM | > 309 µM | –
O=C(O/N=C1\CCCC\C1=C/c1ccccc1)c1ccc([N+](=O)[O-])cc1 | – | – | inactive
C=CCN1C(N)=C(C#N)C(C#N)(C#N)C1CCC (stereo not given) | > 200 µM | 151 µM | –
Cc1nc(C)c(N2CCN(C#N)CC2)c(=O)[nH]1 | > 200 µM | > 200 µM | –
CC(Oc1cc2oc(=O)cc(-c3ccccc3)c2cc1Cl)C(=O)O (stereo not given) | – | – | inactive
COC(=O)CCCC=C(c1cc(Br)c(OC)c(C(=O)OC)c1)c1cc(Br)c(OC)c(C(=O)OC)c1 | 1.82 µM | 42.7 µM | –
COc1ccccc1NC(=O)C1=C(C)NC(C)=C(C(=O)Nc2ccccc2OC)C1c1ccccc1[N+](=O)[O-] | > 13.5 µM | > 13.5 µM | –
CC(=O)NNC(=S)N/C=C/c1c(C)ccc([N+](=O)[O-])c1[N+](=O)[O-] | > 200 µM | 41.7 µM | –
Cn1c2c3ccccc3nc-2cc2ccccc21 | > 174 µM | 0.316 µM | –
COC(Cc1cc(C(O)(c2ccc(C(C)(C)C)cc2)c2cc(CC(OC)(c3cc(C(OC)(c4ccc(C(C)(C)C)cc4)c4ccc(C(C)(C)C)cc4)c(C)cc3C)c3cc(C(OC)(c4ccc(C(C)(C)C)cc4)c4ccc(C(C)(C)C)cc4)c(C)cc3C)c(C)cc2C)c(C)cc1C)(c1cc(C(OC)(c2ccc(C(C)(C)C)cc2)c2ccc(C(C)(C)C)cc2)c(C)cc1C)c1cc(C(OC)(c2ccc(C(C)(C)C)cc2)c2ccc(C(C)(C)C)cc2)c(C)cc1C | – | – | inactive
Clc1ccc(CNNCc2cccc(Cl)c2)cc1 | > 200 µM | 102 µM | –
O=NC1C(Cl)C2CC1C1C(Br)C(Br)CC21 (stereo not given) | > 200 µM | > 200 µM | –
COC(=O)c1oc([N+](=O)[O-])c(Cl)c1Cl | > 151 µM | 0.776 µM | –
COc1cccc(CCCNC(=O)Cc2cc(OC)c(OC)cc2CO)c1 | > 200 µM | 14.5 µM | –
O=C(OCc1ccccc1C1CSCSC1)c1cc(C(=O)OCc2ccccc2C2CSCSC2)c(C(=O)OCc2ccccc2C2CSCSC2)cc1C(=O)OCc1ccccc1C1CSCSC1 | > 1.82 µM | > 1.82 µM | –
O=C(NCCCCCCCCNC(=O)c1cc(-c2ccccc2)nc2ccccc12)c1cc(-c2ccccc2)nc2ccccc12 | > 200 µM | > 200 µM | –
Cc1ccc2nc(CN(CCO)CCO)cc(=O)n2c1 | > 200 µM | > 200 µM | –
NC(=O)c1ccc(NCC2=CC(=O)C=CC2=O)cc1 | > 40.7 µM | 17.4 µM | –
CCCCCCCCCCCCCCCC(=O)OCC1OC(CO)(OC2OC(CO)C(O)C(O)C2O)C(O)C1O (stereo not given) | > 200 µM | 64.6 µM | –
CC(C)(C)OC(=O)NCCC1SC2C=CC1C2 (stereo not given) | > 200 µM | 107 µM | –
CO/C=C/c1cc2c(cc1C(OC)OC)OCO2 | – | – | inactive
CCOC(=O)CCC(NC(=O)C(Cc1ccccc1)NC(=O)OCc1ccccc1)C(=O)OCC (stereo not drawn) (Cbz-Phe-Glu(OEt)-OEt; configuration not given here) | > 200 µM | 9.55 µM | –
CCC1(CC2CCCN(C)C2)c2ccccc2Sc2ccccc21 (stereo not given) | > 200 µM | 11 µM | –
Cn1c(=O)c(C(c2ccc([N+](=O)[O-])cc2)c2c(O)c3ccccc3n(C)c2=O)cc2ccccc21 (stereo not given) | > 4.27 µM | > 4.27 µM | –
CCC1c2c(cc(=O)[nH]c2O)C(=O)N1C (stereo not given) | > 447 µM | > 447 µM | –

SMILES | EC50 | IC50 | outcome
OC1CC[C@H](Cl)C2=C1[C@@]13C[C@]14OCCC3OC2[C@@H]4Cl (stereo not given in full) | > 427 µM | > 427 µM | –
CC1=CC2C(O)(CC(CO)=CC3C4C(C)(C)C4(O)C(O)C(C)C32O)C1=O (stereo not given) | – | – | inactive
CCOc1ccc(NC(=O)/C(CC(=O)c2c[n+](=O)c3ccccc3n2[O-])=N\OCCCc2ccccc2)cc1 | > 123 µM | > 123 µM | –
c1c(N2CCOCC2)ssc1=[N+]1CCOCC1 | – | – | inactive
CCCCCCCCCCCCOC1C(COCCN2CCCCC2)OC2OC(C)(C)OC21 (stereo not given) | > 200 µM | 2.63 µM | –
O=C(O)CCNCCCNCCC(=O)O | > 851 µM | > 851 µM | –
CC1C2Cc3ccc(O)cc3C1(C)CCN2CCC(=O)c1ccccc1 (stereo not given) | > 200 µM | 27.5 µM | –
Cc1ccccc1Nc1nc(-c2ccccc2)nc(N)c1N=O | > 200 µM | 21.9 µM | –
Cc1c2ccccc2nc(CSCCO)[n+]1[O-] | > 200 µM | > 200 µM | –
CCC(C)C(NC(=O)C(N)CCCN=C(N)N)C(=O)NC(CCC(N)=O)C(=O)NC(CCCN=C(N)N)C(=O)NCC(=O)N1CCCC1C(=O)NCC(=O)NC(CCCN=C(N)N)C(=O)NC(C)C(=O)NC(Cc1ccccc1)C(=O)NC(C(=O)NC(C(=O)NC(C(=O)NCC(=O)NC(CCCCN)C(N)=O)C(C)CC)C(C)OC1OC(CO)C(O)C(O)C1NC(C)=O)C(C)C (stereo not given) | > 50.1 µM | > 50.1 µM | –
O=C1C=C(Nc2ccccc2C(=O)CC(=O)C(=O)Nc2ccc(Cl)cc2)c2ccccc2C1=O | > 39.8 µM | 2.19 µM | –
N#Cc1cc2cc3c4c(c2oc1=O)CCCN4CCC3 | > 1.95 µM | > 1.95 µM | –
O=C/C(=C1/C=Cc2cc([N+](=O)[O-])ccc2S1)c1ccccc1 | > 200 µM | > 200 µM | –
Cc1cc(NS(=O)(=O)c2ccc(NC(=O)c3ccc(Cl)c4c(Nc5ccc(S(=O)(=O)Nc6cc(C)on6)cc5)c5ccccc5nc34)cc2)no1 | > 47.9 µM | > 47.9 µM | –
Cc1ccc(C)c(N2C/C(=N\NC(=O)CC#N)C(c3nc4ccccc4s3)C(=O)C2=O)c1 (stereo not given) | – | – | inactive
CCCCCC/C=C\CCCCCCCCC(=O)c1cccc(OC)c1OC | > 200 µM | > 200 µM | –
Clc1nc(Cl)nc(Nc2ccccc2Cl)n1 | > 200 µM | 97.7 µM | –
Cc1ccc2c(c1)C(=O)N1CCC[C@H]1C=N2 | > 200 µM | 3.63 µM | –
Cn1c(O)c(N=O)c(=O)[nH]c1=O | > 200 µM | > 200 µM | –
COc1ccc(N2C(=O)C3c4[nH]c5ccccc5c4C4CCC(c5ccccc5)CC4C3C2=O)cc1 (stereo not given) | > 100 µM | > 100 µM | –
NC(=O)C(=CNC(=S)c1ccncc1)C(N)=O | > 200 µM | > 200 µM | –
C=C1C(=O)O[C@H]2C1C(OC(=O)/C(C)=C/C)C(OC(C)=O)[C@@](C)(O)C1C2C(C)=C[C@H]1OC(C)=O (stereo not given in full) | > 141 µM | 6.17 µM | –
O=C(O)CCCCCCCCCc1ccccc1 | > 200 µM | 107 µM | –
CC(=O)/C(=C/c1ccc(Cl)cc1)C(=O)c1ccccc1 | > 66.1 µM | 11.7 µM | –
CC1=CC(C)=Nc2ccccc2N1 | > 200 µM | > 200 µM and 195 µM | –
N#C/C(=C\c1ccc(Cl)cc1)C(=O)c1ccccc1 | > 83.2 µM | > 83.2 µM | –
